Test results taken from EP0071374A1, “Nitrosourea derivatives having anti-tumour and anti-bacterial activity” (KUREHA KAGAKU KOGYO KABUSHIKI KAISHA, priority 1981, dated 1983).

Columns and labels:
[1] = Side effects: nephrotoxicity (albuminurea); assay type: in vivo, JCL-ICR mouse; conditions: orally 10 mg/kg once a day for 5 days; for Nephrotoxicity: albuminurea
Protocol: Side effects: • The side effects of the present compounds were examined using JCL-ICR mouse as the experimental animal.
Each of the present compounds was orally administered to a group of the mouse at a daily dose rate of 10 mg/kg once a day for 5 days running, the same procedure being carried out on the other group of the mouse by administering BCNU at the same rate.

L-1210 leukemia = test: Anti-tumour effect against L-1210 leukemia on mouse; assay type: in vivo; conditions: T/C x 100 of average survival days; dose 10 mg/kg intraperitoneally once a day for 5 days, starting 24 hours after transplantation of 1 x 10^5 cells/animal
Protocol: Anti-tumour effect against L-1210 leukemia on mouse: • The successively cultured L-1210 leukemia cells in the ascites of a mouse were transplanted intraperitoneally to a group of the mouse at a rate of 1 x 10^5 cells/animal, and after 24 hours of the transplantation, a solution of each of the present compounds dissolved in an aqueous physiological saline solution was intraperitoneally administered to the group of the mouse once a day for 5 days running. By observing the state of the mice, the average survival days of the administered mice (T) and those of the control group (C) were obtained to calculate the prolongation ratio of the mouse's life (T/C x 100).

Solubility in water = assay type: physicochemical
V-7 tumour = test: Anti-tumour effect against V-7 tumour on a rabbit; assay type: in vivo; conditions: survival days vs not-administered control rabbits; dose 10 mg/kg on the 7th day and 11th day of the transplantation
Protocol: Anti-tumour effect against V-7 tumour on a rabbit: • The cancer cells prepared by extirpating the solid tumour transplated and proliferated in the femoral part of a rabbit, cutting finely and having passed through stainless steel mesh of Tyler standard mesh of ? 200 were transplanted to the thinner muscle of the femoral part of a rabbit by using an injector at a rate of 1.5 x 10^7 cells/animal. On the 7th day and llth day of the transplantation, the present compound was administered to the transplanted rabbit. The prolongation ratio of the rabbit was calculated by the comparison of the survival days of the administered rabbits and the not-administered control rabbits.

Escherichia coli = test: Antibacterial activity in vitro, agar plate dilution; assay type: cell-based; set-up: key: + means the degree of inhibition of the growth of E. Coli; the larger the number of +, the larger the inhibition; ++: + means the degree of inhibition of the growth of E. Coli; the larger the number of +, the larger the inhibition; +++: + means the degree of inhibition of the growth of E. Coli; the larger the number of +, the larger the inhibition; - means that no inhibition of the growth of E. coli was observed; conditions: 18 hours at 37°C, Heart infusion agar
Protocol: Antibacterial activity: • i) A series of 2 times dilution of aqueous solution of each of the present compounds were prepared, and a plate culture medium was prepared by mixing each series with Heart infusion agar culture medium. A strain of Escherichia coli cultured in trypto-soy bouillon at 37°C for 18 hours was inoculated on the thus prepared culture medium, and after culturing for 18 hours at 37°C, the degree of proliferation of the inoculated bacteria was observed, the inoculum being a plutinum loop-full.

Row | SMILES | Nephrotoxicity [1] | Prolongation ratio (L-1210 leukemia) [%] | Solubility in Water (Solubility in water) | Prolongation ratio (V-7 tumour) [%] | degree of inhibition of the growth of E. coli (Escherichia coli; Diluted concentration 1/2) | degree of inhibition of the growth of E. coli (Escherichia coli; Diluted concentration 1/4) | degree of inhibition of the growth of E. coli (Escherichia coli; Diluted concentration 1/8) | degree of inhibition of the growth of E. coli (Escherichia coli; Diluted concentration 1) | degree of albuminurea ([1]; result in words)
1 | CCC(CO)(CO)NC(=O)N(CCCl)N=O [2-Ethyl-2-[3-(2-chloroethyl)-3-nitrosoureido]-1,3-propanediol] | + (+ means that albuminurea was observed in one to two animals of the total ten animals.) | 405 | good | 230 | ++ | + | + | +++ | 
2 | CC(CO)(CO)NC(=O)N(CCCl)N=O [2-Methyl-2-[3-(2-chloroethyl)-3-nitrosoureido]-1,3-propanediol] | + (+ means that albuminurea was observed in one to two animals of the total ten animals.) | 410 | good | 205 | ++ | ++ | + | +++ | 
3 | CC(NC(=O)N(CCCl)N=O)C(O)CO (centres unmarked) [3-[3-(2-Chloroethyl)-3-nitrosoureido]-1,2-butanediol] | + (+ means that albuminurea was observed in one to two animals of the total ten animals.) | 430 | good | 210 | ++ | + | + | +++ | 
4 | O=NN(CCCl)C(=O)NCC(O)CO (centres unmarked) [3-[3-(2-Chloroethyl)-3-nitrosoureido]-1,2-propanediol] | + (+ means that albuminurea was observed in one to two animals of the total ten animals.) | 420 | good | 215 | ++ | + | + | +++ | 
5 | O=NN(CCCl)C(=O)NCCCl [BCNU, 1,3-Bis(2-chloroethyl)-1-nitrosourea, reference compound] | +++ (+++ means that albuminurea was observed in eight to nine animals of the total ten animals.) | 204 | not soluble | 140 | + | - | - | + | severely
